Results: paper PMC11905058, “Novel Leech Antimicrobial Peptides, Hirunipins: Real‐Time 3D Monitoring of Antimicrobial and Antibiofilm Mechanisms Using Optical Diffraction Tomography” (Advanced Science, 2025)
Converted amounts (≈) assume the structure as drawn.

Legend:
E. coli (KCTC 1682) [1] = assay: Multipassage drug resistance study; type: cell-based, Escherichia coli; settings: continuous exposure at sub-MIC (0.5×MIC)
Experimental: The MICs of hirunipin 2 and antibiotics were determined, and the concentration of each sub‐MIC (0.5×MIC) of E. coli (KCTC 1682) was diluted to 1 × 10^6 CFU mL^−1 with MHB for the next passaged MIC determination. This procedure was repeated fifteen times. Ciprofloxacin and tetracycline were used as the controls.

MDRAB (329-53) = system: MDRAB (329-53)
Experimental: Synergy testing by checkerboard assay: Briefly, each 96-well microtiter plate was inoculated with two-fold serial dilutions of two antibiotics, ranging from 1/8 MIC to 2 MIC, such that one antibiotic was inoculated in the columns and the other in the rows. Then, MDRAB (329-53) cells were inoculated at a concentration of 1× 10^6 CFU/mL. The plates were incubated overnight under static conditions and observed visually.

S. aureus (KCTC 1621) [2] = assay: Membrane depolarization assay (diSC3-5); type: cell-based, Staphylococcus aureus; settings: diSC3-5 fluorescence, monitored 500 s
Experimental: The FL dye diSC3‐5 (3,3′‐dipropylthiadicarbocyanine iodide) was utilized to assess the depolarizing impact of peptides on the cytoplasmic membrane of S. aureus (KCTC 1621), following a previously established method.^[ [26], [27] ^]
Membrane Depolarization Assay: Briefly, mid-log phase S. aureus (KCTC 1621) was harvested and washed three times with 5 mM HEPES buffer (pH 7.4, containing 20 mM glucose), and resuspended to an OD600 of 0.05 in the same buffer. The cell suspension was incubated with 0.4 μM diSC3-5 for 90 min such that most of the dye molecules gathered at the cytoplasmic membrane. To equilibrate the cytoplasmic and external K^+ concentrations, KCl was added to the cell suspension containing diSC3-5 to obtain a final concentration of 100 mM, followed by incubating the cells at room temperature for 15−30 min, with peptide aliquots added to 2 mL of suspension. The fluorescence was recorded using a model RF-5301 PC fluorescence spectrophotometer (Shimadzu) at an excitation wavelength of 622 nm and an emission wavelength of 670 nm.

E. coli (KCTC 1682) [3] = assay: PI influx assay by flow cytometry; type: cell-based, Escherichia coli; settings: 16 µg mL^−1, 60 min, 37 °C, PI 10 µg/mL, untreated 6.9%
Experimental: (§1) Damage to membrane integrity induced by the peptides was evaluated by flow cytometry of E. coli (KCTC 1682) and S. aureus (KCTC 1621) cells stained with the membrane‐impermeable dye PI, as previously described.^[ [26], [27] ^]
(§2) Flow Cytometry Analysis: E. coli (KCTC 1682) and S. aureus (KCTC 1621) were cultured in LB broth until they reached mid-log-phase, then washed and resuspended in PBS to a density of 2 × 10^5 CFU/mL. The bacterial suspension was incubated with the samples and 10 µg/mL of propidium iodide (PI), a fluorescent dye, at 37 °C for 1 hour in the dark. The samples were then centrifuged and washed twice in PBS to remove any excess dye. The fluorescence of PI, which indicates membrane damage, was measured by FACS flow cytometer (Agilent, ACEA Bioscience Inc.) using a laser excitation wavelength of 488 nm.

S. aureus (KCTC 1621) [4] = assay: PI influx assay by flow cytometry; type: cell-based, Staphylococcus aureus; settings: 16 µg mL^−1, 60 min, 37 °C, PI 10 µg/mL, untreated 9.5%
Experimental: as §1, §2

[5] = system: Escherichia coli [KCTC 1682]; type: cell-based; settings: CLSI broth microdilution in MHB, 1×10^6 CFU/well, 37 °C, 24 h, optical density
Experimental: (§3) The MICs of the peptides were measured by the Clinical and Laboratory Standards Institute (CLSI) broth microdilution method, as outlined in a previous study.^[ [26], [27] ^]
(§4) Minimal Inhibitory Concentrations (MICs): Bacteria were grown to mid-logarithmic phase and diluted in Mueller-Hinton broth (MHB) (Difco). The bacterial suspension (1×10^6 CFU/well) was added to a 96-well microtiter plate along with a two-fold serial dilution of samples. The plate was incubated at 37 °C for 24 hours and the bacterial growth inhibition was assessed by measuring the optical density using an ELISA plate reader. The minimum inhibitory concentration (MIC) was defined as the lowest concentration of samples that prevented visible bacterial growth.

[6] = system: Pseudomonas aeruginosa [KCTC 1637]; type: cell-based; settings: CLSI broth microdilution in MHB, 1×10^6 CFU/well, 37 °C, 24 h, optical density
Experimental: as §3, §4

[7] = system: Staphylococcus aureus [KCTC1621]; type: cell-based; settings: CLSI broth microdilution in MHB, 1×10^6 CFU/well, 37 °C, 24 h, optical density
Experimental: as §3, §4

[8] = system: Staphylococcus epidermidis [KCTC 1917]; type: cell-based; settings: CLSI broth microdilution in MHB, 1×10^6 CFU/well, 37 °C, 24 h, optical density
Experimental: as §3, §4

MDRE (328-84) = type: cell-based, Enterobacter cloacae; settings: clinically isolated multidrug-resistant Enterobacter cloacae; broth microdilution
Experimental: as §3
Microbial Strains and Cell Lines: Multiple bacterial strains were used in this study. Standard stains included Escherichia coli (KCTC 1682), Pseudomonas aeruginosa (KCTC 1637), Staphylococcus aureus (KCTC1621) and Staphylococcus epidermidis (KCTC 1917) supplied from the Korean Collection for Type Cultures (KCTC) of the Korea Research Institute of Bioscience and Biotechnology (KRIBB). Clinically isolated multidrug-resistant bacteria included multidrug-resistant Klebsiella pneumonia (MDRKP 328-83), multidrug-resistant Acinetobacter baumannii (MDRAB 329-53), multidrug-resistant Pseudomonas aeruginosa (MDRPA 314-69), multidrug-resistant Enterobacter cloacae (MDRE 328-84) and multidrug-resistant Escherichia coli (MDREC 329-66) provided from Hospital of Chosun University, Korea. All bacterial strains were stored in 20% glycerol at −80 °C. For the subsequent experiments, the bacteria were recovered and cultured in the corresponding enrichment broth at 37 °C. The mouse macrophage RAW264.7, mouse fibroblast NIH-3T3 and human keratinocyte HaCat cells were cultured in Dulbecco’s modified Eagle’s medium (DMEM), supplemented with 10% (v/v) of fetal bovine serum (Sigma-Aldrich), 100 U/mL of penicillin and 0.1 mg/mL of streptomycin, at 37 °C in the presence of 5% CO2
as §4

[9] = antibiotic in combination with hirunipin 2
[10] = in combination with hirunipin 2

In the case of CN(C)[C@@H]1C(O)=C(C(N)=O)C(=O)[C@@]2(O)C(O)=C3C(=O)c4c(O)cccc4[C@@](C)(O)[C@H]3C[C@@H]12 [TET, Tetracycline], the “fold-change in the MICs after 15 passages” value (E. coli (KCTC 1682) [1]) is reported as 32 fold, the “FICI: fractional inhibitory concentration index, FICA + FICB” value (MDRAB (329-53); [9]) is reported as 0.25 and the “Interpretation of FICI” value (MDRAB (329-53); [9]) is reported as “synergy (FICI ≤ 0.5 was interpreted as synergy)”. For the same molecule, the “MICA: MIC of antibiotic alone” value (MDRAB (329-53); checkerboard, MDRAB, 1×10^6 CFU/mL) was 16 µg/mL, the “FICA: fractional inhibitory concentration of antibiotic ([A] / MICA)” value (MDRAB (329-53); [10]) was 0.125 and the “[A]: MIC of antibiotic in combination” value (MDRAB (329-53); [10]) was 2 µg/mL.
Buforin‐2 [Buforin-2] was tested, and the “effect on membrane potential (in words)” value (S. aureus (KCTC 1621) [2]) was “did not affect membrane potential”, the “percentage of PI-positive cells, E. coli (KCTC 1682)” value (E. coli (KCTC 1682) [3]) was 7.6% and the “percentage of PI-positive cells, S. aureus (KCTC 1621)” value (S. aureus (KCTC 1621) [4]) was 9.6%.
With CC[C@H](C)[C@H](NC(=O)CN)C(=O)NCC(=O)N[C@@H](C)C(=O)N[C@H](C(=O)N[C@@H](CC(C)C)C(=O)N[C@@H](CCCCN)C(=O)N[C@H](C(=O)N[C@@H](CC(C)C)C(=O)N[C@H](C(=O)N[C@H](C(=O)NCC(=O)N[C@@H](CC(C)C)C(=O)N1CCC[C@H]1C(=O)N[C@@H](C)C(=O)N[C@@H](CC(C)C)C(=O)N[C@H](C(=O)N[C@@H](CO)C(=O)N[C@@H](Cc1c[nH]c2ccccc12)C(=O)N[C@H](C(=O)N[C@@H](CCCCN)C(=O)N[C@@H](CCCNC(=N)N)C(=O)N[C@@H](CCCCN)C(=O)N[C@@H](CCCNC(=N)N)C(=O)N[C@@H](CCC(N)=O)C(=O)N[C@@H](CCC(N)=O)C(N)=O)[C@@H](C)CC)[C@@H](C)CC)[C@@H](C)O)[C@@H](C)O)C(C)C)C(C)C [Melittin, reference compound] the “Minimum inhibitory concentration (MIC), Escherichia coli [KCTC 1682]” value [5] was 32 µg/mL (≈ 11.2 µM), the “Minimum inhibitory concentration (MIC), Pseudomonas aeruginosa [KCTC 1637]” value [6] was 32 µg/mL (≈ 11.2 µM) and the “Minimum inhibitory concentration (MIC), Staphylococcus aureus [KCTC1621]” value [7] was 16 µg/mL (≈ 5.62 µM). For the same molecule, the “Minimum inhibitory concentration (MIC), Staphylococcus epidermidis [KCTC 1917]” value [8] was 32 µg/mL (≈ 11.2 µM), the “Minimum inhibitory concentrations, MDRE (328-84)” value (MDRE (328-84)) was 64 µg/mL (≈ 22.5 µM) and the “percentage of PI-positive cells, E. coli (KCTC 1682)” value (E. coli (KCTC 1682) [3]) was 91.6%. For the same molecule, the “percentage of PI-positive cells, S. aureus (KCTC 1621)” value (S. aureus (KCTC 1621) [4]) was 99.5%.
